From patent US9687477B2 (priority 2011, dated 2017)

Key:
[1] = tested on: Influenza A/WSN/33 virus (H1N1); assay: microbe, parasite or virus in culture; type: cell-based

SMILES | influenza viral protein expression (influenza virus) | influenza viral protein expression (NP, NS1, NS2, M1, M2) (influenza virus) | production of infectious influenza virus particles (virus titer, plaque assay) [1]
CCCCCCCCCCCCC/C=C/[C@@H](O)[C@H](CO)N(C)C [DMS, D-erythro-N,N-dimethylsphingosine] | inhibition was also observed | inhibited influenza viral protein expression | suppressed the production of infectious influenza virus particles
Oc1ccc(Nc2nc(-c3ccc(Cl)cc3)cs2)cc1 [SKI-II, 4-[4-(4-Chloro-phenyl)-thiazol-2-ylamino]-phenol] | inhibition was also observed | inhibited influenza viral protein expression | suppressed the production of infectious influenza virus particles
